Test results from the supplement of paper PMC10307832.

Assays:
Assay in all cases: relative viability (nuclei count vs DMSO), 5 days (fraction); higher = more cells survive
IPA-3 + Pemetrexed = compound: C1=CC=C2C(=C1)C=CC(=C2SSC3=C(C=CC4=CC=CC=C43)O)O [IPA-3] + Nc1nc2[nH]cc(CCc3ccc(C(=O)N[C@@H](CCC(=O)O)C(=O)O)cc3)c2c(=O)[nH]1 [Pemetrexed] (partner 0.2 µM)
In short: (§1)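 One day after seeding in 1536-well plates, lung cancer cell lines were dosed by pin tool. Dosing was either single-drug or a fixed anchor-drug dose plus five library-drug doses (not always all listed) in √10 steps. After 5 days, nuclei were stained in one fix-and-stain step and counted on 4× images, and relative viability is the nuclei count of treated wells over that of vehicle wells, given as the median of duplicate plates.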

Doramapimod + AZD7762 = compound: Cc1ccc(-n2nc(C(C)(C)C)cc2NC(=O)Nc2ccc(OCCN3CCOCC3)c3ccccc23)cc1 [Doramapimod] + NC(=O)Nc1cc(-c2cccc(F)c2)sc1C(=O)N[C@H]1CCCNC1 [AZD7762] (partner 0.2 µM)
In short: as §1

RAF265 + Foretinib = compound: Cn1c(Nc2ccc(C(F)(F)F)cc2)nc2cc(Oc3ccnc(-c4ncc(C(F)(F)F)[nH]4)c3)ccc21 [RAF265] + COc1cc2c(Oc3ccc(NC(=O)C4(C(=O)Nc5ccc(F)cc5)CC4)cc3F)ccnc2cc1OCCCN1CCOCC1 [Foretinib] (partner 0.25 µM)
In short: as §1

RAF265 + Dasatinib = compound: Cn1c(Nc2ccc(C(F)(F)F)cc2)nc2cc(Oc3ccnc(-c4ncc(C(F)(F)F)[nH]4)c3)ccc21 [RAF265] + Cc1nc(Nc2ncc(C(=O)Nc3c(C)cccc3Cl)s2)cc(N2CCN(CCO)CC2)n1 [Dasatinib] (partner 0.075 µM)
In short: as §1

NCI-H2087 showed a relative viability (IPA-3 + Pemetrexed; first compound 0.2 µM) of 0.698, a relative viability (IPA-3 + Pemetrexed; first compound 0.6325 µM) of 0.642 and a relative viability (IPA-3 + Pemetrexed; first compound 2 µM) of 0.645. It also gave a relative viability (IPA-3 + Pemetrexed; first compound 6.325 µM) of 0.678, a relative viability (IPA-3 + Pemetrexed; first compound 20 µM) of 0.608 and a relative viability (Doramapimod + AZD7762; first compound 0.02 µM) of 1.47. It also gave a relative viability (Doramapimod + AZD7762; first compound 0.06325 µM) of 1.52, a relative viability (Doramapimod + AZD7762; first compound 0.2 µM) of 1.15 and a relative viability (Doramapimod + AZD7762; first compound 0.6325 µM) of 1.42. The relative viability (Doramapimod + AZD7762; first compound 2 µM) was 1.39, the relative viability (RAF265 + Foretinib; first compound 0.01 µM) was 0.967 and the relative viability (RAF265 + Foretinib; first compound 0.03162 µM) was 1.1. It also gave a relative viability (RAF265 + Foretinib; first compound 0.1 µM) of 0.938, a relative viability (RAF265 + Foretinib; first compound 0.3162 µM) of 0.797 and a relative viability (RAF265 + Foretinib; first compound 1 µM) of 0.663. For the same cell line, the relative viability (RAF265 + Dasatinib; first compound 0.01 µM) was 0.743, the relative viability (RAF265 + Dasatinib; first compound 0.03162 µM) was 0.76 and the relative viability (RAF265 + Dasatinib; first compound 0.1 µM) was 0.6. For the same cell line, the relative viability (RAF265 + Dasatinib; first compound 0.3162 µM) was 0.639 and the relative viability (RAF265 + Dasatinib; first compound 1 µM) was 0.383.
Work on NCI-H460 yielded a relative viability (IPA-3 + Pemetrexed; first compound 0.2 µM) of 0.0552, a relative viability (IPA-3 + Pemetrexed; first compound 0.6325 µM) of 0.0621 and a relative viability (IPA-3 + Pemetrexed; first compound 2 µM) of 0.0636. The relative viability (IPA-3 + Pemetrexed; first compound 6.325 µM) was 0.0626, the relative viability (IPA-3 + Pemetrexed; first compound 20 µM) was 0.0707 and the relative viability (Doramapimod + AZD7762; first compound 0.02 µM) was 0.658. For the same cell line, the relative viability (Doramapimod + AZD7762; first compound 0.06325 µM) was 0.702, the relative viability (Doramapimod + AZD7762; first compound 0.2 µM) was 0.726 and the relative viability (Doramapimod + AZD7762; first compound 0.6325 µM) was 0.805. The relative viability (Doramapimod + AZD7762; first compound 2 µM) was 0.531, the relative viability (RAF265 + Foretinib; first compound 0.01 µM) was 1.06 and the relative viability (RAF265 + Foretinib; first compound 0.03162 µM) was 0.982. It also gave a relative viability (RAF265 + Foretinib; first compound 0.1 µM) of 1.06, a relative viability (RAF265 + Foretinib; first compound 0.3162 µM) of 1.04 and a relative viability (RAF265 + Foretinib; first compound 1 µM) of 1.1. For the same cell line, the relative viability (RAF265 + Dasatinib; first compound 0.01 µM) was 0.686, the relative viability (RAF265 + Dasatinib; first compound 0.03162 µM) was 0.535 and the relative viability (RAF265 + Dasatinib; first compound 0.1 µM) was 0.596. The relative viability (RAF265 + Dasatinib; first compound 0.3162 µM) was 0.371 and the relative viability (RAF265 + Dasatinib; first compound 1 µM) was 0.266.
For LOU-NH91, the relative viability (IPA-3 + Pemetrexed; first compound 0.2 µM) was 0.382, the relative viability (IPA-3 + Pemetrexed; first compound 0.6325 µM) was 0.377 and the relative viability (IPA-3 + Pemetrexed; first compound 2 µM) was 0.465. For the same cell line, the relative viability (IPA-3 + Pemetrexed; first compound 6.325 µM) was 0.387, the relative viability (IPA-3 + Pemetrexed; first compound 20 µM) was 0.411 and the relative viability (Doramapimod + AZD7762; first compound 0.02 µM) was 0.757. For the same cell line, the relative viability (Doramapimod + AZD7762; first compound 0.06325 µM) was 0.739, the relative viability (Doramapimod + AZD7762; first compound 0.2 µM) was 0.7 and the relative viability (Doramapimod + AZD7762; first compound 0.6325 µM) was 0.744. The relative viability (Doramapimod + AZD7762; first compound 2 µM) was 0.575, the relative viability (RAF265 + Foretinib; first compound 0.01 µM) was 1.04 and the relative viability (RAF265 + Foretinib; first compound 0.03162 µM) was 0.845. For the same cell line, the relative viability (RAF265 + Foretinib; first compound 0.1 µM) was 0.954, the relative viability (RAF265 + Foretinib; first compound 0.3162 µM) was 0.582 and the relative viability (RAF265 + Foretinib; first compound 1 µM) was 0.71. For the same cell line, the relative viability (RAF265 + Dasatinib; first compound 0.01 µM) was 0.563, the relative viability (RAF265 + Dasatinib; first compound 0.03162 µM) was 0.49 and the relative viability (RAF265 + Dasatinib; first compound 0.1 µM) was 0.497. The relative viability (RAF265 + Dasatinib; first compound 0.3162 µM) was 0.45 and the relative viability (RAF265 + Dasatinib; first compound 1 µM) was 0.343.
For NCI-H1651, the relative viability (IPA-3 + Pemetrexed; first compound 0.2 µM) was 0.602, the relative viability (IPA-3 + Pemetrexed; first compound 0.6325 µM) was 0.606 and the relative viability (IPA-3 + Pemetrexed; first compound 2 µM) was 0.621. The relative viability (IPA-3 + Pemetrexed; first compound 6.325 µM) was 0.591, the relative viability (IPA-3 + Pemetrexed; first compound 20 µM) was 0.679 and the relative viability (Doramapimod + AZD7762; first compound 0.02 µM) was 0.441. It also gave a relative viability (Doramapimod + AZD7762; first compound 0.06325 µM) of 0.478, a relative viability (Doramapimod + AZD7762; first compound 0.2 µM) of 0.435 and a relative viability (Doramapimod + AZD7762; first compound 0.6325 µM) of 0.441. It also gave a relative viability (Doramapimod + AZD7762; first compound 2 µM) of 0.356, a relative viability (RAF265 + Foretinib; first compound 0.01 µM) of 0.86 and a relative viability (RAF265 + Foretinib; first compound 0.03162 µM) of 0.808. For the same cell line, the relative viability (RAF265 + Foretinib; first compound 0.1 µM) was 0.75, the relative viability (RAF265 + Foretinib; first compound 0.3162 µM) was 0.844 and the relative viability (RAF265 + Foretinib; first compound 1 µM) was 0.584. The relative viability (RAF265 + Dasatinib; first compound 0.01 µM) was 0.417, the relative viability (RAF265 + Dasatinib; first compound 0.03162 µM) was 0.408 and the relative viability (RAF265 + Dasatinib; first compound 0.1 µM) was 0.368. It also gave a relative viability (RAF265 + Dasatinib; first compound 0.3162 µM) of 0.398 and a relative viability (RAF265 + Dasatinib; first compound 1 µM) of 0.263.
Cell Line NCI-H441 has a relative viability (IPA-3 + Pemetrexed; first compound 0.2 µM) of 0.258, a relative viability (IPA-3 + Pemetrexed; first compound 0.6325 µM) of 0.262 and a relative viability (IPA-3 + Pemetrexed; first compound 2 µM) of 0.27. It also gave a relative viability (IPA-3 + Pemetrexed; first compound 6.325 µM) of 0.236, a relative viability (IPA-3 + Pemetrexed; first compound 20 µM) of 0.236 and a relative viability (Doramapimod + AZD7762; first compound 0.02 µM) of 1.07. It also gave a relative viability (Doramapimod + AZD7762; first compound 0.06325 µM) of 1.28, a relative viability (Doramapimod + AZD7762; first compound 0.2 µM) of 1.21 and a relative viability (Doramapimod + AZD7762; first compound 0.6325 µM) of 0.98. The relative viability (Doramapimod + AZD7762; first compound 2 µM) was 0.961, the relative viability (RAF265 + Foretinib; first compound 0.01 µM) was 1.28 and the relative viability (RAF265 + Foretinib; first compound 0.03162 µM) was 1.04. The relative viability (RAF265 + Foretinib; first compound 0.1 µM) was 0.966, the relative viability (RAF265 + Foretinib; first compound 0.3162 µM) was 0.884 and the relative viability (RAF265 + Foretinib; first compound 1 µM) was 0.623. It also gave a relative viability (RAF265 + Dasatinib; first compound 0.01 µM) of 0.692, a relative viability (RAF265 + Dasatinib; first compound 0.03162 µM) of 0.773 and a relative viability (RAF265 + Dasatinib; first compound 0.1 µM) of 0.518. It also gave a relative viability (RAF265 + Dasatinib; first compound 0.3162 µM) of 0.431 and a relative viability (RAF265 + Dasatinib; first compound 1 µM) of 0.496.
